Two compounds from US20100247659A1, “PHENYLPHTHALIMIDE ANALOGS FOR TREATING DIABETIC MACULAR EDEMA” (Charlesson, LLC, priority 2007, published 2010) can be followed below.

The subject of data set [1] is normal BN rats. The data set can be described thus: Ocular toxicity, ERG recording. Particulars: 2 μg/eye intravitreal, weeks 1-4. The class given is in vivo, rat. On the procedure:
Electroretinogram (ERG) recording: Full-field ERGs were recorded by Espion E^2 ERG system (Diagnosys LLC) as described previously (Rohrer, Journal of Neuroscience, 1999, 19: […]) by two protocols: (A) 10 ms flashes of increasing light intensities under scotopic and photopic conditions, and (B) 2 Hz flicker ERG under photopic conditions. BN rats received an intravitreal injection of Compound 4 (2.0 μg/eye, 5 μl/eye of 0.4 mg/ml in BN rat serum) or equal amount of BN rat serum, respectively. At various intervals after injection, the peak a-wave amplitude was measured from baseline to the initial negative-going voltage, whereas peak b-wave amplitude was measured from the trough of the a-wave to the peak of the positive b-wave. Flicker amplitudes were measured from the preceding trough to the peak of the flicker response. Data was expressed as mean±SD and compared between the compound-injected eyes and control eyes by the paired Student's t-test.
To test the potential ocular toxicities of Compound 4, normal rats at age of 8 weeks received an intravitreal injection of a high dose of Compound 4, 2 μg/eye (5 μl/eye of 0.4 mg/ml in BN rat serum) or an equal amount of BN rat serum as the vehicle control. Prior to study initiation, and after weeks 1, 2, 3, and 4 following the injection, visual function was evaluated by ERG recording. […]

The nature of data set [2]: Drying at elevated temperature. Format: physicochemical. The following applies: 70° C., 89 h. On the procedure: Synthesis of Compound 4 was successfully carried out via catalytic hydrogenation and via transfer hydrogenation. Catalytic hydrogenation required a longer reaction time (24 h) under 45-50 psi. This method requires specialized equipment. […] Scale-up of this reaction gave 99.2% pure material in 91% yield.
A 12 L, 3-neck round bottom flask, equipped appropriately and under nitrogen, was charged with a slurry of 10% palladium on carbon (24.5 g, 10% (w/w)) in ethanol (200 proof, 1 L). To this slurry was charged (2,6-diisopropylphenyl)-5-nitro-1H-isoindole-1,3-dione (245.0 g, 0.70 mol) followed by ethanol (200 proof, 2.92 L, 3.92 L total, 16 mL/g) and triethylamine (311.7 g, 3.08 mol, 4.40 eq). Formic acid (135.8 g, 2.95 mol, 4.22 eq) was added slowly over 25 min. The slurry was heated to reflux and the reaction progress was monitored by HPLC. At 3.5 h, the mixture was filtered through a Celite bed to remove the catalyst. The filter bed was rinsed with ethanol (200 proof, 4×175 mL). The filtrate was then clarified through Whatman filter paper to remove any particulates. Ethanol (200 proof, 2×150 mL) was used as a rinse. To the solution was added water (deionized, 3.92 L), over 45 min. The resulting slurry was stirred at ambient temperature overnight. The following day, the slurry was cooled to 0-10° C. for 2 h. […]

The subject of data set [3] is normal BN rats. The data set can be described thus: Ocular toxicity, histological analysis of the retina. Format: in vivo, rat. The following applies: 2 μg/eye intravitreal, 4 weeks. On the procedure: Histological analysis of the retina: To test the potential ocular toxicity of Compound 4, 8 week old normal BN rats received an intravitreal injection of Compound 4 (2.0 μg/eye, 5 μl/eye of 0.4 mg/ml in BN rat serum) or equal amount of BN rat serum, respectively. At various intervals after injection, the animals were sacrificed. The eyes then were removed, fixed in 4% formaldehyde, embedded in paraffin, and cut into 6-μm sections containing the whole retina. Paraffin-embedded sections were stained with hematoxylin-eosin (HE) and were examined.
Possible toxicities of CLT-033 were also examined using pathohistological examination 4 weeks after the drug administration. Retinal cross sections stained with H&E were examined under a light microscope.
Eight weeks old BN rats were received an intravitreal injection of Compound 4 (2.0 μg/eye, 5 μl/eye 0.4 mg/ml in BN rat serum) or equal amount of BN rat serum respectively (n=6). ERG was performed prior to study initiation and 1, 2, 3 and 4 weeks after the injection. Data shown no dramatic change in the a-wave and b-wave amplitudes in Compound 4-injected rats compared to vehicle-injected rats (FIG. 18A-18C). The animals were sacrificed 4 weeks after injection. The eye sections were observed under microscope with HE staining.

In the next data set the test system is OIR rats. The data set can be described thus: Retinal NV in OIR rats, fluorescein angiography. The class given is in vivo, rat. The source says:
Induction of oxygen-induced retinopathy (OIR): Induction of OIR followed the procedure as described by Smith et al (Smith, et al. Invest. Opthalmol. Vis. Sci. 1994, 35: 101-111) with some modifications. Briefly, Newborn Brown Norway (BN) rats (Charles River Laboratories) at postnatal day 7 (P7) were exposed to hyperoxia (75% O2) for 5 days (P7-12) and then returned to normoxia (room air) to induce retinopathy.
Retinal angiography with high-molecular-weight fluorescein: High molecular weight fluorescein-dextran was used in retinal angiography as described by Smith et al (Smith, et al. Invest. Opthalmol. Vis. Sci. 1994, 35:101-111). Briefly, animals were anesthetized with ketamine (100 mg/kg of body weight) plus acepromazine (5 mg/kg of body weight) and then perfused through the left ventricle with 50 mg/ml of high molecular weight fluorescein-dextran in PBS. The eyes were marked for orientation, enucleated, and fixed in 4% paraformaldeyde for 3-24 h. Several incisions were made and the retinas were flat-mounted on a gelatin-coated slide. The vasculature was then examined under a fluorescent microscope. Both the total retinal area and the area of the avascular regions were measured using a computerized image-analysis system and averaged within each group.
Newborn BN rats were exposed to 75% oxygen from age P7 to P12. […]

For `CC(C)c1cccc(C(C)C)c1N1C(=O)c2ccc(N)cc2C1=O` [Compound 4], in the data set with normal BN rats [1], the “ERG a-wave and b-wave amplitudes” value was “no detectable change in the a-wave and b-wave amplitudes”. In data set [2], the stability on drying result is “does not cause decomposition”. Further, the “retinal morphology, H&E sections” value in the data set with normal BN rats [3] is given as “No apparent morphological change or immunoresponse”.
In the case of `O=C1CCC(N2C(=O)c3ccccc3C2=O)C(=O)N1` (centres unmarked) [thalidomide], the “inhibition of retinal NV” value with OIR rats (1.0 μg/eye intravitreal, evaluated P20) is given as “lacked significant inhibition of retinal NV”. Besides, in the data set with OIR rats (5 μl of 0.8 mM per eye, angiography), the “effect on retinal NV, angiographs (FIG. 9)” value is listed as “did not reduce the NV”.
